Patent US6476037B1, “L-arginine and phosphodiesterase (PDE) inhibitor synergism” (The Regents of the University of California, priority 2000, dated 2002)
Read-outs that look alike come from different tables or passages of the source.

Legend:
[1] = tested on: Systemic and Coronary Vasculature of the Pig; experiment: Hemodynamic effects in chronically instrumented, anesthetized swine; format: in vivo
Description: Chronically instrumented female swine (70 kg, n=10) (ascending aortic and left anterior descending (LAD) coronary artery transit time flow probes, carotid and internal jugular pressures) were administered five doses of 1-arginine in five-minute intervals. After a period of recovery, four doses of nitroglycerin (1, 2, 3, 4 μg/kg/min) were infused. Sildenafil (100 mg IV) was administered and the 1-arginine and nitroglycerin administrations repeated.
After approval by the Institutional Animal Care and Use Committee, 70 kg female domestic swine (70.5±2.6 kg) were sedated with ketamine (25 mg/kg IM). Mask induction with isoflurane was followed by intubation with an endotracheal tube (6.0 ID 45 cm long). An angiocathether (20 gauge) was placed in an ear vein for IV fluid administration. Prophylactic antibiotics (cefazolin 1 gram IV prior to incision followed by cephalexin 500 mg PO BID) were given. The animal was ventilated with 100% oxygen and isoflurane to maintain anesthesia. A left thoracotomy (T4-5) was performed under sterile conditions. Transonics® (Ithaca, N.Y.) transit time flow probes were placed on the ascending aorta (model 28A) and the proximal left anterior descending coronary artery (3 mm, model 3S). The flow probe cables were tunneled to the animal's back. The thoracotomy was closed and air evacuated with a chest tube. The animals were given ketorolac (30 mg IV) followed by buprenorphine (0.3 to 0.6 mg IM Q8 hours for 5 days) for postoperative pain. The animals were allowed to recover for a minimum of two days before experimentation.
Previously instrumented swine were sedated with ketamine (25 mg/kg IM) and mask-induced with isoflurane. An angiocatheter (20 gauge) was placed in an ear vein for IV fluid administration. Animals were intubated (6.0 ID 45 cm long tube) and ventilated with 100% oxygen and isoflurane. Prophylactic antibiotics were given (cefazolin 1 gm IV). The animal's neck was then opened using sterile technique. Angiocatheters (16 gauge) were placed in the left and right internal jugular veins for central venous pressure monitoring and for drug and fluid infusions. An angiocatheter (20 gauge) was placed in the common carotid artery for blood sampling and pressure measurement. Arterial and central venous pressures were measured with disposable pressure transducers (Abbott Critical Care Systems Transpac® IV, North Chicago, Ill.) and the Transonics® Transit Time Flow meter (Model 206 with (-R) pRessure Option, Ithaca, N.Y.). ECG was monitored (Electronics for Medicine Monitor Model OM). The neck was closed. A supra-pubic bladder catheter was placed using sterile technique for urinary drainage. Data was recorded at 100 Hz using WinDaq data acquisition software (Transonics Systems, Ithaca, N.Y.). The pressure transducers were calibrated using a mercury manometer. Flow probes were calibrated prior to use.
Fentanyl (2 mg), diazepam (20 mg), and pancuronium (10 mg) were administered as a bolus. Isoflurane was simultaneously discontinued.

[2] = Serum L-arginine and L-citrulline concentrations after IV L-arginine boluses; format: in vivo, swine
Description: 2. L-Arginine Administration: A bolus dose of 1-arginine (60 cc of 10% 1-arginine (6 grams)) was administered intravenously. Five minutes later a blood sample was taken. The dose was then repeated. This procedure was repeated a total of five times (total of 300 cc of 10% 1-arginine (30 grams) administered). Thirty minutes were allowed to elapse and then a final blood sample collected.
Blood samples were collected in serum separator tubes and immediately placed on ice. Tubes were centrifuged for 20 minutes and the serum removed and stored in cryovials at −80° C. L-arginine and 1-citrulline levels were quantified by the Protein Structure Lab at the University of California, Davis (Davis, Calif.) with an ion-exchange chromatographer (Beckman 6300 aminoacid analyzer, Fullerton, Calif.). Serum osmolality was measured using an osmometer (Advanced Instruments, Needleham Heights, Mass.) by the Veternary Medical Teaching Hospital Diagnostic Laboratories (Davis, Calif.).

[3] = L-arginine levels after oral or intravenous L-arginine supplementation; format: in vivo; conditions: preliminary trial, bolus 30 grams over 15 minutes; from 81±8
Description: With respect to the coronary disease applications, we note that L-arginine levels without supplementation are about 116±14 mmol/L and oral administration elevates the levels to about 224±26 mmol/L with improvement in vasomotor function. […] Intravenous infusions (10 mg/kg/min) raised L-arginine levels from about 102±5 to about 8172±122 mmol/L and caused vasodilation. In our preliminary trial a bolus of L-arginine (30 grams over 15 minutes) elevated levels (81±8 to 6900±600 μmol). In preferred embodiments, there were two fundamentally different ranges of L-Arginine levels achieved. Levels that were 1.5 to 2 times baseline and levels that were 50 to 100 times baseline.

[4] = L-arginine pharmacokinetic parameters from preliminary clinical and animal data; format: in vivo
Description: Computer simulation of the predicted L-arginine levels from the high dose (1 mcg/kg/min) yield levels of 420 mmol/L. (T1/2=10 minutes, Volume distribution=0.36 L/kg: obtained from our preliminary clinical and animal data). Computer simulations of the low dose (0.5 mcg/kg/min) yield levels of 260 mmol/L. These doses are in the range to improve endothelial function and prevent vasospasm but will not cause significant vasodilation.

[5] = cited from earlier work
[6] = first administration of sildenafil, 100 mg IV bolus, mean±SE
[7] = first dose of sildenafil, 100 mg IV bolus
[8] = l-arginine alone, five 6 gram IV boluses at 5 min intervals, mean±SE

O=[N+]([O-])OCC(CO[N+](=O)[O-])O[N+](=O)[O-] [Nitroglycerin, nitroglycerin]
CO, Max Effect ([1]; in vivo, iv): 9.1 ± 0.7 L/min | CVP, Max Effect ([1]; in vivo, iv): 9.9 ± 1.0 mmHg | CVR, Max Effect ([1]; in vivo, iv): 98.9 ± 9.8 dynes*sec*cm^−5*10^3 | HR, Max Effect ([1]; in vivo, iv): 128.3 ± 9.0 beats/min | LAD Flow, Max Effect ([1]; in vivo, iv): 65.4 ± 6.7 mL/min | MAP, Max Effect ([1]; in vivo, iv): 103.9 ± 6.6 mmHg | SVR, Max Effect ([1]; in vivo, iv): 882.8 ± 98.6 dynes*sec*cm^−5

CCCc1nn(C)c2c(=O)[nH]c(-c3cc(S(=O)(=O)N4CCN(C)CC4)ccc3OCC)nc12 [sildenafil]
LAD flow, peak [1, 6]: 87.6 ± 7.3 mL/min | Mean arterial pressure, min. [1, 6]: 78.7±7.0 mmHg | cardiac output, peak [1, 6]: 10.5 ± 0.8 L/min | central venous pressure, min. [1, 6]: 9.1±1.1 mmHg | coronary vascular resistance, min. [1, 6]: 54.7±5.3 dynes*sec*cm^−5*10^3 | heart rate, peak [1, 6]: 165.0±8.9 beats/min | systemic vascular resistance, min. [1, 6]: 612.2±61.1 dynes*sec*cm^−5 | duration of effects on MAP, CVP, CVR, and SVR [1, 7]: persisted through the fifteen-minute observation period | duration of increase in cardiac output (disappeared after) [1, 7]: three | duration of increase in heart rate [1, 7]: about five | increase in cardiac output [1, 7]: 1.2 L/min | effect of sildenafil on the l-arginine-induced change in LAD flow ([1]; sildenafil 100 mg IV before l-arginine boluses, P<0.05): potentiated the effects of 1-arginine on LAD flow | time of peak hemodynamic effect following injection ([1]; sildenafil i.v. bolus): approximately two

Cl.N=C(N)NCCC[C@H](N)C(=O)O [L-Arginine, 1-arginine hydrochloride]
CO, Max Effect [1, 8]: 8.9 ± 0.5 L/min | CVP, Max Effect [1, 8]: 12.0 ± 1.0 mmHg | CVR, Max Effect [1, 8]: 89.1 ± 4.7 dynes*sec*cm^−5*10^3 | HR, Max Effect [1, 8]: 106.5 ± 6.7 beats/min | MAP, Max Effect [1, 8]: 107.4 ± 6.4 mmHg | SVR, Max Effect [1, 8]: 825.0 ± 39.3 dynes*sec*cm^−5 | LAD Flow, Max Effect ([1]; l-arginine alone, five 6 gram IV boluses at 5 min intervals, mean±SE, hydrochloride): 66.7 ± 6.6 mL/min | LAD Flow, Max Effect ([1]; l-arginine alone, five 6 gram IV boluses at 5 min intervals, mean±SE, listed as L-arginine, hydrochloride): 66.7 ± 6.6 mL/min | change in coronary blood flow relative to the change expected for a similar change in osmolality ([1]; l-arginine fifth dose compared with mannitol): 2.6 times | Serum [L-Arginine] ([2]; 5 min after Dose #1 (6 grams IV), no sildenafil): 1987.0 ± 116.8 µM | Serum [L-Arginine] ([2]; 5 min after Dose #2 (6 grams IV each), no sildenafil): 3139.2 ± 129.6 µM | Serum [L-Arginine] ([2]; 5 min after Dose #3 (6 grams IV each), no sildenafil): 4143.3 ± 205.4 µM | Serum [L-Arginine] ([2]; 5 min after Dose #4 (6 grams IV each), no sildenafil): 5232.7 ± 364.6 µM | Serum [L-Arginine] ([2]; 5 min after Dose #5 (total 30 grams IV), no sildenafil): 5922.1 ± 307.4 µM | Serum [L-Citrulline] ([2]; 5 min after L-arginine Dose #1 (6 grams IV), no sildenafil): 54.7 ± 5.2 µM | Serum [L-Citrulline] ([2]; 5 min after L-arginine Dose #2, no sildenafil): 53.2 ± 4.2 µM | Serum [L-Citrulline] ([2]; 5 min after L-arginine Dose #3, no sildenafil): 54.9 ± 4.4 µM | Serum [L-Citrulline] ([2]; 5 min after L-arginine Dose #4, no sildenafil, hydrochloride): 61.5 ± 6.7 µM | Serum [L-Citrulline] ([2]; 5 min after L-arginine Dose #4, no sildenafil, listed as 1-arginine, hydrochloride): 61.5 ± 6.7 µM | Serum [L-Citrulline] ([2]; 5 min after L-arginine Dose #5, no sildenafil): 60.2 ± 5.9 µM | Serum [L-Citrulline] ([2]; 30 min Post last L-arginine dose, no sildenafil): 60.5 ± 7.1 µM | Serum [L-Arginine] ([2]; 30 min Post last dose, no sildenafil): 2592.7 ± 268.9 µM | L-arginine levels [3]: 6900 ± 600 µmol | T1/2 [4]: 10 min | Volume distribution [4]: 0.36 L/kg | L-arginine levels ([5]; intravenous infusions 10 mg/kg/min, from about 102±5): about 8172±122 mmol/L | L-arginine levels ([5]; oral administration, without supplementation about 116±14): about 224±26 mmol/L
